The source of these data is publication PMC9782470, “Clickable C-Glycosyl Scaffold for the Development of a Dual Fluorescent and [^18F]fluorinated Cyanine-Containing Probe and Preliminary In Vitro/Vivo Evaluation by Fluorescence Imaging” (Pharmaceuticals, 2022).

Molecules are shown by their SMILES.

One series has as its target T1, αvβ3 integrin (Homo sapiens, UniProt P05106+P06756).
T1 construct: purchased Bio-techne, Lille, France
Briefly: Integrin αvβ3 solid-phase binding assay (competition with coated vitronectin). Conditions: coated human vitronectin 1 µg/mL, integrin αvβ3 2 µg/mL, compounds 1.6 nM–20 µM, 1 h room temperature, OD 450 nm, 3 independent series in duplicate, ± SD in Figure 2, read-out: IC50, binding of αvβ3 integrin onto vitronectin. As for the experimental part: The affinity of the compounds for integrin protein was evaluated in terms of the half maximal inhibitory concentration (IC50 values) using a solid-phase assay, as previously described by Tobias G. Kapp et al.. Briefly, the surface of Maxisorp microplates (NUNC, ThermoFicher Scientific, Paris, France) was coated with 1 µg/mL human vitronectin (Bio-techne, Lille, France) overnight at +4 °C. The non-specific sites were blocked with a TSB buffer (20 mM Tris-HCl, 150 mM NaCl, 1 mM CaCl2, 1 mM MgCl2, 1 mM MnCl2, pH 7.5, 1% BSA) (Sigma-Aldrich, Saint-Quentin-Fallavier, France) for 1 h at 37 °C. […] After 1 h incubation at room temperature, the plates were washed, and the amount of bound integrin was stained by incubation with 2 µg/mL of mouse anti-human CD51/61 (BD Pharmingen, Paris, France) and 1 µg/mL of anti-mouse IgG horseradish peroxidase conjugate antibody (Bio-techne, France). The enzymatic reaction was carried out in the dark by the addition of the enzyme substrate (Bio-techne, France) and stopped after 10 min by the addition of H2SO4 (Stop Solution, Bio-techne, France). The optical densities were measured at 450 nm. The values were blank subtracted, and the results were expressed as relative absorbance percentage in comparison to the wells containing only integrin αvβ3.
Affinities were estimated from 3 independent series performed in duplicate as IC50 values (i.e., the concentration of the compounds that displaced 50% of integrin binding calculated using one-site fit log-IC50 non-linear analysis regression using the GraphPad Prism 6 software (v 6.05, USA)).
Figure 2 Solid-phase binding assay.

The next series has as its system U-87 MG cells. Briefly: Cellular uptake, quantification of Cy5 incorporation. It counts as cell-based, human. Conditions: 24 h of incubation; Cy5 fluorescence of DMSO cell lysate (λex 645, λem 680 nm), calibration curve of each compound; n = 3. As for the experimental part: Cellular uptake was evaluated using a confocal microscopy on U-87 MG spheroids after 1, 4, and 24 h of exposure with conjugates 23 and 24 and c(RGDfK)-Cy5 (25) at 1 µM. The fluorescence signal appeared to be stable over time and the distribution of the compounds was homogeneous over all cells and throughout the spheroids (Figure 3A). These three compounds were localized rapidly in the cell cytoplasm due to receptor internalization after ligand binding. As expected from photophysical properties, the fluorescence signal was higher for compound 24 compared to 23. […] The amount of compounds seemed to decrease slightly at 4 h but stayed relatively stable until 24 h and represented 25.8, 14.7, and 28.6 pmoles/10^6 cells, respectively, for compounds 23, 24 and 25. […]
U-87 MG cells were seeded in 12 multi-well plates at 10 × 10^4 cells/cm^2 and cultivated for 48 h. […] The fluorescence signals of Cy5 in the samples were measured in duplicate at an excitation wavelength of 645/9 nm and an emission wavelength of 680/20 nm (Tecan Infinite M200 Pro spectrofluorometer, Tecan, Männedorf, Switzerland). The fluorescence signals of known concentrations of Cy5-conjugates diluted in DMSO were used to draw a standard calibration curve. The concentration of Cy5 present in the samples (nM) was determined from the linear regression analysis of the standard calibration curve (Equation (1)). […] The results of the cellular uptake were expressed as the concentration of Cy5 (nM) incorporated per one million of cells (Equation (2)). […] (nM) = f (Fluorescence Intensity)(1) [Cy5] […]
Figure 3 Cellular uptake of fluorescent conjugates 23 and 24. […] The intrinsic fluorescence of the compounds corresponds to Cyanine 5 (red fluorescence, λex 631/28 nm, λem 692/40 nm). […] (B) Quantification of Cy5 incorporation by U-87 MG cells at 1, 4, and 24 h of incubation. The amount of each compound was calculated using the fluorescence of Cy5 extrapolated from the calibration curves of each compound and normalized to 10^6 cells. n = 3.

The conditions of series [1]: cited from earlier work. The procedure:
Photophysical properties (absorption, excitation, emission, and relative fluorescence quantum yield) of compounds 23 and 24 were measured in an aqueous PBS buffer solution (pH = 7.4, T = 298 K) and compared to the commercially available Cy5 to detect any potential degradation that could occur during the synthesis and purification steps. […] (λabs/λem = 648/662 nm, Δs fluo = 326 cm^−1 for 23, λabs/λem = 644/658 nm, Δs fluo = 330 cm^−1 for 24). Conjugation of the ... || Absorption spectra were recorded in diluted solution (µM) in an aqueous PBS buffer (0.01 M, pH 7.4). Fluorescence quantum yields Φfluo were measured in diluted solutions with an absorbance lower than 0.1 using the following equation: ϕfluo, x=ϕfluo,ref(Gradx/Gradref)(nx2/nref2) where Φfluo is the fluorescence quantum yield; Grad is the gradient from the plot of integrated fluorescence intensity vs. absorbance; n the refractive index of the solvent; and the subscripts x and ref denote sample and reference. The fluorescence quantum yields of 23 and 24 were measured relative to the commercial Cy5 ...

In a further series the test system is ectopic U-87 MG tumors. It counts as in vivo, female athymic nude mice. As for the experimental part:
(§1) In order to evaluate the in vivo biodistribution and tumor uptake of compound 24, which has the best photophysical and solubility properties in comparison to compound 23, mice bearing ectopic or orthotopic brain tumors were imaged in NIRF using a fluorescent small animal imager. […] Animal experiments were performed in accordance with the protocols approved by the French Ministry of Research after a review by the local animal protection and use committee (APAFIS# 30902). For ectopic tumor biodistribution, a U-87 MG tumor model was established by subcutaneous injection of U-87 MG cells (2 × 10^6 in 100 µL of 5% glucose solution) into the front right flank of female athymic nude mice (Charles Rivers, Wilmington, MA, USA). The mice were subjected to imaging studies when the tumor volume reached 500 mm^3 (3–4 wk after inoculation) at 1, 4, 6, and 24 h after the intravenous administration of the compounds 24 and 25 at 0.5 nmoles in 100 µL of water for injections mixed with ethanol (20% EtOH/80% water). For brain tumor imaging, U-87 MG spheroids of approximatively 500 µm diameter were implanted in the cortex of the right hemisphere and imaged 24 h after the administration of 0.5 nmoles of the compound 24 or 25. In the same manner, major organs were harvested and subjected to small animal NIRF imaging (Fluorvivo, Indec Biosystem, Los Altos, CA, USA). A customized filter set (excitation, 510–550 nm; emission, 630–690 nm) was used for data acquisition. All fluorescence images were acquired with a 1-s exposure. The fluorescence intensity of each tissue was measured after subtraction of the background signal from an ROI of the same size and shape drawn over an area without any tissue using imageJ. Figure 4 Biodistribution of compounds 24 and 25 in tumors and organs. (A) Kinetic distribution of compounds 24 and 25 in ectopic U-87 MG tumors at 1, 4, 6, and 24 h (representative images of the whole mice with the solid arrows showing the ectopic tumors at 24 h). (B) Biodistribution of the compounds in major organs at 24 h after their administration. […] An average of ratio uptake was calculated. […]

Series [2] concerns orthotopic U-87 MG brain tumor. It counts as in vivo, female athymic nude mice. The following applies: 24 h after intravenous administration of 0.5 nmoles; NIRF imaging; average of ratio uptake. The procedure:
as §1

Series [3] can be described thus: Absorption and fluorescence measurements. The following applies: for relative fluorescence quantum yield Φfluo: PBS pH 7.4, relative to commercial Cy5.Cl, λex = 640 nm, absorbance lower than 0.1; for Stokes shift Δs fluo / λem / λabs: aqueous PBS buffer 0.01 M, pH 7.4, T = 298 K; for λabs: diluted solution (µM). It counts as physicochemical. As for the experimental part: Photophysical properties (absorption, excitation, emission, and relative fluorescence quantum yield) of compounds 23 and 24 were measured in an aqueous PBS buffer solution (pH = 7.4, T = 298 K) and compared to the commercially available Cy5 to detect any potential degradation that could occur during the synthesis and purification steps. […] (λabs/λem = 648/662 nm, Δs fluo = 326 cm^−1 for 23, λabs/λem = 644/658 nm, Δs fluo = 330 cm^−1 for 24).
Absorption spectra were recorded in diluted solution (µM) in an aqueous PBS buffer (0.01 M, pH 7.4). Fluorescence quantum yields Φfluo were measured in diluted solutions with an absorbance lower than 0.1 using the following equation: ϕfluo, x=ϕfluo,ref(Gradx/Gradref)(nx2/nref2) where Φfluo is the fluorescence quantum yield; Grad is the gradient from the plot of integrated fluorescence intensity vs. absorbance; n the refractive index of the solvent; and the subscripts x and ref denote sample and reference. The fluorescence quantum yields of 23 and 24 were measured relative to the commercial Cy5.Cl in PBS for which Φfluo,ref = 0.13 [36]. The excitation of the reference and sample compounds was performed at the same wavelength (λex = 640 nm).

Series [4] is described as follows: Solubility in aqueous solution. Format: physicochemical. Conditions: result in words.

The IC50 is the midpoint of a concentration-inhibition curve. For the molecule `CN1C(=CC=CC=CC2=[N+](CCCCCC(=O)NCCCC[C@@H]3NC(=O)[C@@H](Cc4ccccc4)NC(=O)[C@H](CC(=O)O)NC(=O)CNC(=O)[C@H](CCCNC(=N)N)NC3=O)c3ccccc3C2(C)C)C(C)(C)c2ccccc21` [Compound 25], the IC50 on αvβ3 integrin worked out at 8540 nM. Besides, the “amount of compound incorporated by U-87 MG cells” value (from here on “amount of compound incorporated”) in the series on U-87 MG cells came out at 28.6 pmoles/10^6 cells.

Consider `CN1/C(=C/C=C/C=C/C2=[N+](CCCCCC(=O)O)c3ccccc3C2(C)C)C(C)(C)c2ccccc21` [Cy5], for which the “fluorescence quantum yield Φfluo of the reference” value in series [1] (PBS) is given as 13%. The “fluorescence quantum yield Φfluo,ref” value in series [1] (in PBS, as fraction) is listed as 0.13.

Consider `CN1\C(=C/C=C/C=C/C2=[N+](CCCCCC(=O)NCCCn3cc(COCC[C@H]4O[C@H](CF)[C@@H](OCc5cn(CCOCCOCCOCCOCCC(=O)NCCCC[C@@H]6NC(=O)[C@@H](Cc7ccccc7)NC(=O)[C@H](CC(=O)O)NC(=O)CNC(=O)[C@H](CCCNC(=N)N)NC6=O)nn5)[C@H]4OCc4cn(CCOCCOCCOCCOCCC(=O)NCCCC[C@@H]5NC(=O)[C@@H](Cc6ccccc6)NC(=O)[C@H](CC(=O)O)NC(=O)CNC(=O)[C@H](CCCNC(=N)N)NC5=O)nn4)nn3)c3ccccc3C2(C)C)C(C)(C)c2ccccc21` [Compound 24], for which the IC50 on αvβ3 integrin was found to be 16 nM. Also, in the series on U-87 MG cells, the “amount of compound incorporated” value amounted to 14.7 pmoles/10^6 cells. The “ratio of fluorescence uptake, ectopic tumor to healthy brain” value in the series on ectopic U-87 MG tumors (24 h after intravenous administration of 0.5 nmoles, NIRF imaging, average of ratio uptake) amounted to 100 fold. The route of elimination result with ectopic U-87 MG tumors (mouse, in vivo) was “urinary tract and liver metabolism”. Also, the “ratio of fluorescence uptake, orthotopic brain tumor to healthy brain” value in series [2] is recorded as 40 fold. Also, in series [3], the “relative fluorescence quantum yield Φfluo” value is reported as 14%, the “Stokes shift Δs fluo” value turned out to be 330 cm⁻¹, the λem was 658 nm and the λabs came out at 644 nm.

Consider `CN1\C(=C/C=C/C=C/C2=[N+](CCCCCC(=O)NCCCn3cc(COCC[C@H]4O[C@H](CF)[C@@H](OCc5cn(CCCCCC(=O)NCCCC[C@@H]6NC(=O)[C@@H](Cc7ccccc7)NC(=O)[C@H](CC(=O)O)NC(=O)CNC(=O)[C@H](CCCNC(=N)N)NC6=O)nn5)[C@H]4OCc4cn(CCCCCC(=O)NCCCC[C@@H]5NC(=O)[C@@H](Cc6ccccc6)NC(=O)[C@H](CC(=O)O)NC(=O)CNC(=O)[C@H](CCCNC(=N)N)NC5=O)nn4)nn3)c3ccccc3C2(C)C)C(C)(C)c2ccccc21` [Compound 23], for which, on αvβ3 integrin, the IC50 came out at 10 nM. The “amount of compound incorporated” value with U-87 MG cells is listed as 25.8 pmoles/10^6 cells. Also, in series [3], the “relative fluorescence quantum yield Φfluo” value was found to be 8%, the “Stokes shift Δs fluo” value worked out at 326 cm⁻¹, the λem worked out at 662 nm and the λabs came out at 648 nm. For the same molecule, the “solubility in aqueous solution” value in series [4] is “poor solubility”.
